The source made the active and inactive calls.
Assays:
Format in all cases: functional
[1] = molecular target: T1, Serine/threonine-protein kinase D2 (Homo sapiens, UniProt Q9BZL6);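 note: measured against PRKD2 as one member of a kinome-wide kinase profiling panel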
T1 sequence (Q9BZL6 whole entry): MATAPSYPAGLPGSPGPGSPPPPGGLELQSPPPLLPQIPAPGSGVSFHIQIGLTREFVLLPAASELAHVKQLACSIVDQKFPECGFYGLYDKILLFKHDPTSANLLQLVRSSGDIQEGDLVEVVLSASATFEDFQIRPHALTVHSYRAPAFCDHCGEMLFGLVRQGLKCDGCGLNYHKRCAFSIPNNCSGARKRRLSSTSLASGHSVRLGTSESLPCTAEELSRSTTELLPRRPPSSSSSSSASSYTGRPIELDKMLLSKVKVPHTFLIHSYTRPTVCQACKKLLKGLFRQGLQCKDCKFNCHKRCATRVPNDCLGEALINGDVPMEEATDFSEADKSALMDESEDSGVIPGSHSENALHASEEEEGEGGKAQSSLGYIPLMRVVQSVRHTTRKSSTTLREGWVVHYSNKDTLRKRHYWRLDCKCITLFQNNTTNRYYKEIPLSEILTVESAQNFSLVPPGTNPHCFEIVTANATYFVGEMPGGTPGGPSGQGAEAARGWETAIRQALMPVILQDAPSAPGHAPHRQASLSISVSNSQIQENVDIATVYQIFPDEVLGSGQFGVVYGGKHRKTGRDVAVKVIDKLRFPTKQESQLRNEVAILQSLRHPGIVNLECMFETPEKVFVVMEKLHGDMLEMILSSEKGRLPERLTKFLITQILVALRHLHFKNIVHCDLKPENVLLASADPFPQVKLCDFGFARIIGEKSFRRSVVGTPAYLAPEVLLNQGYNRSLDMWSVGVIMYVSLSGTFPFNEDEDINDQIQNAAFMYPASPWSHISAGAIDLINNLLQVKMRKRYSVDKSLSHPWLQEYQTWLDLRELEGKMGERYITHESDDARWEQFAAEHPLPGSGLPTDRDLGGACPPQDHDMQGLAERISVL

[2] = molecular target: Fibroblast growth factor receptor 1 (Homo sapiens, UniProt P11362)
[3] = molecular target: T2, Tyrosine-protein kinase JAK3 (Homo sapiens, UniProt P52333)
T2 sequence (P52333 whole entry): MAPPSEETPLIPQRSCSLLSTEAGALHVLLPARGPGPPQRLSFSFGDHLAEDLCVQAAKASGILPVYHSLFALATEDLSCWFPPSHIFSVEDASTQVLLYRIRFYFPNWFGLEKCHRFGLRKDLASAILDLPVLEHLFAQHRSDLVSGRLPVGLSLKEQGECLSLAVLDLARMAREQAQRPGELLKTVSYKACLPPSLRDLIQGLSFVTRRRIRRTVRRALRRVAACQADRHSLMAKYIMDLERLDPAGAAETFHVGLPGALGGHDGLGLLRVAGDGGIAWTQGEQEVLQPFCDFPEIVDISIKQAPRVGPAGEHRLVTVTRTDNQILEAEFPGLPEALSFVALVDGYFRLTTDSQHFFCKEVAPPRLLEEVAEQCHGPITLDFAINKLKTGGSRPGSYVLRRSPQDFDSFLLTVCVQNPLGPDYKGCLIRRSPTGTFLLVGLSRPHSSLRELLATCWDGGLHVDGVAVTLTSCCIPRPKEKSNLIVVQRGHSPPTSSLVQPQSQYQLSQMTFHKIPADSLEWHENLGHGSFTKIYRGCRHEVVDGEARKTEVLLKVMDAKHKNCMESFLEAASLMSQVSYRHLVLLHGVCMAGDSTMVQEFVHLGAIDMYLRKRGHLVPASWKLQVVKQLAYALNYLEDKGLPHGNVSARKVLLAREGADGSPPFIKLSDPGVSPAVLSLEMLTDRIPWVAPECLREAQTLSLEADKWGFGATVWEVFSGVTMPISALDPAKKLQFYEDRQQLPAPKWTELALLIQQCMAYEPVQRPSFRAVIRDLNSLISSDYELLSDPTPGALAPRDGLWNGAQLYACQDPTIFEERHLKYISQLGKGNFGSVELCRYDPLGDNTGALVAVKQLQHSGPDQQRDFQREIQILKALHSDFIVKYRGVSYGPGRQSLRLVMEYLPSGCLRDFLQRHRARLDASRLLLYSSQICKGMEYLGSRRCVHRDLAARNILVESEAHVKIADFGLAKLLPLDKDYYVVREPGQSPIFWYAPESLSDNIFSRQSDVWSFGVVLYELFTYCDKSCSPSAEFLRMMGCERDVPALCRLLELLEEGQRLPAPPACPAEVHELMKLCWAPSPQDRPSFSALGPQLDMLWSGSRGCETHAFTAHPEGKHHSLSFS

[4] = molecular target: High affinity nerve growth factor receptor (Homo sapiens, UniProt P04629);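 note: NTRK1 tested as one member of a kinome-wide profiling panel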
[5] = molecular target: Receptor tyrosine-protein kinase erbB-2 (Homo sapiens, UniProt P04626); assay: Navigating the Kinome. Panel member name: ERBB2
[6] = molecular target: MAP kinase-activated protein kinase 3 (Homo sapiens, UniProt Q16644);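 note: value comes from a kinome-wide profiling panel in which MAPKAPK3 is one of the panel members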
[7] = molecular target: Tyrosine-protein kinase ABL1 (Homo sapiens, UniProt P00519)
[8] = molecular target: T3, Homeodomain-interacting protein kinase 4 (Homo sapiens, UniProt Q8NE63)
T3 sequence (Q8NE63 whole entry): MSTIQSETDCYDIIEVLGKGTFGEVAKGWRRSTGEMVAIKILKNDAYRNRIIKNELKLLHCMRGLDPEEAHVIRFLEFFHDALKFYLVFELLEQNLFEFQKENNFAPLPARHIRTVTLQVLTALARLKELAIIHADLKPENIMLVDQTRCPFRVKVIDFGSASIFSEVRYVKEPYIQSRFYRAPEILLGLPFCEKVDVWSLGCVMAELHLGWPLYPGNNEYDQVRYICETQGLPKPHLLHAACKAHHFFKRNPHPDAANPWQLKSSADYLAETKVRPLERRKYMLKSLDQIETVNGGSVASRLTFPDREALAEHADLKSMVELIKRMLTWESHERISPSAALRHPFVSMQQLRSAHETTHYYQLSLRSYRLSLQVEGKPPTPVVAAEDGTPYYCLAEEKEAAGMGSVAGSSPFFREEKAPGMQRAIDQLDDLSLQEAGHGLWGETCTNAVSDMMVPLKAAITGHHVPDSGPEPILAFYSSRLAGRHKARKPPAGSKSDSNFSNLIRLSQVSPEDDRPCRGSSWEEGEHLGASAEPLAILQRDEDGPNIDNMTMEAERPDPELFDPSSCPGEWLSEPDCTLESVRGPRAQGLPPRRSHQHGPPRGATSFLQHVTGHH

[9] = molecular target: Serine/threonine-protein kinase Nek2 (Homo sapiens, UniProt P51955)
[10] = molecular target: Serine/threonine-protein kinase PLK1 (Homo sapiens, UniProt P53350);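 note: PLK1 measured as one member of a kinome-wide profiling panel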
Chain of Serine/threonine-protein kinase PLK1 (P53350 whole entry): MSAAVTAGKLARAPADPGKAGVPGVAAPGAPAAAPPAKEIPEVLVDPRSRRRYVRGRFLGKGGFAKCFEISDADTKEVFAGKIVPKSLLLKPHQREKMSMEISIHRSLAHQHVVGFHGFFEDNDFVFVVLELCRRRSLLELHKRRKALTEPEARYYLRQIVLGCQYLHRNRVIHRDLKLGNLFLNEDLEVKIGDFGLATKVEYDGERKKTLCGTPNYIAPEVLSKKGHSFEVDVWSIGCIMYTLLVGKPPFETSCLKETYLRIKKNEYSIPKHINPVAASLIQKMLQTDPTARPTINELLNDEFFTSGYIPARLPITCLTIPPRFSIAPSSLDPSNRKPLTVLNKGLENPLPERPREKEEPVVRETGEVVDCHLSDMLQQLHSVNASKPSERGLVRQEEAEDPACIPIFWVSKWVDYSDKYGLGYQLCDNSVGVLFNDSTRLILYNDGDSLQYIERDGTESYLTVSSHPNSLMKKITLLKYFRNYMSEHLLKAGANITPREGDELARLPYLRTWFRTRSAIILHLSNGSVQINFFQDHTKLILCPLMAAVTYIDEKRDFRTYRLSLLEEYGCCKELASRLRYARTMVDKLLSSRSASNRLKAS

Chain of Receptor tyrosine-protein kinase erbB-2 (P04626 whole entry): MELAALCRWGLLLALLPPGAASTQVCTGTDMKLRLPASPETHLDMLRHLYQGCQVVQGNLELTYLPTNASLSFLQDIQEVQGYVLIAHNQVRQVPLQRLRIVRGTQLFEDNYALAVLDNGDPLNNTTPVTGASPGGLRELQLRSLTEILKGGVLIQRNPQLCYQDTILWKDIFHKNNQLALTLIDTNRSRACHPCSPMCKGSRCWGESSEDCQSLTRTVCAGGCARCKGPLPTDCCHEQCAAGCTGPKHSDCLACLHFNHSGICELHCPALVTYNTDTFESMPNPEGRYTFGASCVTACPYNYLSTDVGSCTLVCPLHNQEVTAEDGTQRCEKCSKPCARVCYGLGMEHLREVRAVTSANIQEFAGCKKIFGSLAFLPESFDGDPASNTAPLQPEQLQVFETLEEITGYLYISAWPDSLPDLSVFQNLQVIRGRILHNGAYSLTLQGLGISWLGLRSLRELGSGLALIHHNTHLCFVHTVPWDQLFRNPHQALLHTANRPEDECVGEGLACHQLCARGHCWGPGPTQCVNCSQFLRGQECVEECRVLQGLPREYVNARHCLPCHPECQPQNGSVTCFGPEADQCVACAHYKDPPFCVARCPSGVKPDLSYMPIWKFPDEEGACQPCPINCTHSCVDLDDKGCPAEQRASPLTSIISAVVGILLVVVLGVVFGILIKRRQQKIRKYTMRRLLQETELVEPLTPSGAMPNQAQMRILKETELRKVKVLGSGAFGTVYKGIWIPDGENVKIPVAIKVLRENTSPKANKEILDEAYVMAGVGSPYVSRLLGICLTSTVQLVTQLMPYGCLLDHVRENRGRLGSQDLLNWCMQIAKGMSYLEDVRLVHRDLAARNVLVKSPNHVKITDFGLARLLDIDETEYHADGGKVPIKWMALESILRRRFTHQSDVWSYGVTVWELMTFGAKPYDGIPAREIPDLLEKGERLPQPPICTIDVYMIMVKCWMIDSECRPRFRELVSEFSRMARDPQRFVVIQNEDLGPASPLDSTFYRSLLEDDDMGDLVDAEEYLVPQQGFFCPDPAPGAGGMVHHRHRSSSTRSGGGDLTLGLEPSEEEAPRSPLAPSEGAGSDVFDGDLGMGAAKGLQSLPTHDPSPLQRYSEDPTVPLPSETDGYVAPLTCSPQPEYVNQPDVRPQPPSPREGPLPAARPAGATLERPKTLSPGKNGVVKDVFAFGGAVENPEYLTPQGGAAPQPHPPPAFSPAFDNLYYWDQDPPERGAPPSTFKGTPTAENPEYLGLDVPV
Chain of High affinity nerve growth factor receptor (P04629 whole entry): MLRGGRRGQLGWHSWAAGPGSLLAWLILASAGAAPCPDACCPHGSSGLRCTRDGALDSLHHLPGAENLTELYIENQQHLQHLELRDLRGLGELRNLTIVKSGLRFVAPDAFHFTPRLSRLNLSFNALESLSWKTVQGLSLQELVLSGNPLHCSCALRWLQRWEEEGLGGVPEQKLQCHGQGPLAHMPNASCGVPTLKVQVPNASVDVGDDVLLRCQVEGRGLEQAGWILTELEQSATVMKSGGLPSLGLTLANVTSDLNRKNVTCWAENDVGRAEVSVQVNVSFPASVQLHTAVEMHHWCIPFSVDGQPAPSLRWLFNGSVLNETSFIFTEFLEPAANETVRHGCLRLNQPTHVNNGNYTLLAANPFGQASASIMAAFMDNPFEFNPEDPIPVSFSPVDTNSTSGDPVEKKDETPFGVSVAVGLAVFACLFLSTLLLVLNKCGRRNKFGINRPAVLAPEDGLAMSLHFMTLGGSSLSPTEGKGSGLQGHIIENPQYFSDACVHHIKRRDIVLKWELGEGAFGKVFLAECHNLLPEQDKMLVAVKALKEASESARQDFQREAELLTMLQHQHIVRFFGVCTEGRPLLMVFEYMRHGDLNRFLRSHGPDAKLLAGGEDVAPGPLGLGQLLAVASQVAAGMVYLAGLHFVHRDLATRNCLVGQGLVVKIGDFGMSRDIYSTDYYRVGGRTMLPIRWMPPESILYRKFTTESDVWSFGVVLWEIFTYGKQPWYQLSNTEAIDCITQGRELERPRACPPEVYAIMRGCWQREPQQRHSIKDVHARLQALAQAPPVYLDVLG
Chain of Fibroblast growth factor receptor 1 (P11362 whole entry): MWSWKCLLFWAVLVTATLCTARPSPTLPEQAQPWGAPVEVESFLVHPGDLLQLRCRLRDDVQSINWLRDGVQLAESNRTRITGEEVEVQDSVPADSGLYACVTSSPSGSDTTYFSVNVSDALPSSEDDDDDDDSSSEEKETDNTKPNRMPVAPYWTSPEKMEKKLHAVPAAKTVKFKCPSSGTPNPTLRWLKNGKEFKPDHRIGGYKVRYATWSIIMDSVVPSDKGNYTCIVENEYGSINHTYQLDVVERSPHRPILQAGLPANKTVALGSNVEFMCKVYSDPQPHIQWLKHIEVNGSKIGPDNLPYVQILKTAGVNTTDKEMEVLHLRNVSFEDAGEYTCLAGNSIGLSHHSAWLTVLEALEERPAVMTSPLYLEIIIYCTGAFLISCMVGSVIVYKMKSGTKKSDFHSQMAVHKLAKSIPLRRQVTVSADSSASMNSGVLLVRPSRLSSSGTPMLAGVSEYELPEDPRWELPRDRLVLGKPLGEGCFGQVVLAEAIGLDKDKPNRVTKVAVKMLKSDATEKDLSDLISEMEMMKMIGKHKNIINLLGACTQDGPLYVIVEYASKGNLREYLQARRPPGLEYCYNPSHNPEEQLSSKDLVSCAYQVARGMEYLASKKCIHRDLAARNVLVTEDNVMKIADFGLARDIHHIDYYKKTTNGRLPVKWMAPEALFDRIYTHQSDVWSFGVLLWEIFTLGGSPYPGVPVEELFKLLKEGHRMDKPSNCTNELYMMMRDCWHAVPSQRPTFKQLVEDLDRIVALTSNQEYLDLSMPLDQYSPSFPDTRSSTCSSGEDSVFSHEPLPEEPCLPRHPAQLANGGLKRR
Chain of MAP kinase-activated protein kinase 3 (Q16644 whole entry): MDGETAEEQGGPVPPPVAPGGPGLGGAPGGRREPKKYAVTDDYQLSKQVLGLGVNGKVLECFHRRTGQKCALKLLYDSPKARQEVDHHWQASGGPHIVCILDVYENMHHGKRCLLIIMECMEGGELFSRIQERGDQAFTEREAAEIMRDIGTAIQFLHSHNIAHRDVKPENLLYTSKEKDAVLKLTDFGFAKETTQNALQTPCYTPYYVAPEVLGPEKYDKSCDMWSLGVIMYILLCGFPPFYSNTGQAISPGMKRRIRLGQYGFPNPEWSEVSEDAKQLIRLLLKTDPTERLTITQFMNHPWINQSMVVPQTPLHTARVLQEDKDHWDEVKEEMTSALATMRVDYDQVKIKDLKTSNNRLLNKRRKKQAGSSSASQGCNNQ
Chain of Tyrosine-protein kinase ABL1 (P00519 whole entry): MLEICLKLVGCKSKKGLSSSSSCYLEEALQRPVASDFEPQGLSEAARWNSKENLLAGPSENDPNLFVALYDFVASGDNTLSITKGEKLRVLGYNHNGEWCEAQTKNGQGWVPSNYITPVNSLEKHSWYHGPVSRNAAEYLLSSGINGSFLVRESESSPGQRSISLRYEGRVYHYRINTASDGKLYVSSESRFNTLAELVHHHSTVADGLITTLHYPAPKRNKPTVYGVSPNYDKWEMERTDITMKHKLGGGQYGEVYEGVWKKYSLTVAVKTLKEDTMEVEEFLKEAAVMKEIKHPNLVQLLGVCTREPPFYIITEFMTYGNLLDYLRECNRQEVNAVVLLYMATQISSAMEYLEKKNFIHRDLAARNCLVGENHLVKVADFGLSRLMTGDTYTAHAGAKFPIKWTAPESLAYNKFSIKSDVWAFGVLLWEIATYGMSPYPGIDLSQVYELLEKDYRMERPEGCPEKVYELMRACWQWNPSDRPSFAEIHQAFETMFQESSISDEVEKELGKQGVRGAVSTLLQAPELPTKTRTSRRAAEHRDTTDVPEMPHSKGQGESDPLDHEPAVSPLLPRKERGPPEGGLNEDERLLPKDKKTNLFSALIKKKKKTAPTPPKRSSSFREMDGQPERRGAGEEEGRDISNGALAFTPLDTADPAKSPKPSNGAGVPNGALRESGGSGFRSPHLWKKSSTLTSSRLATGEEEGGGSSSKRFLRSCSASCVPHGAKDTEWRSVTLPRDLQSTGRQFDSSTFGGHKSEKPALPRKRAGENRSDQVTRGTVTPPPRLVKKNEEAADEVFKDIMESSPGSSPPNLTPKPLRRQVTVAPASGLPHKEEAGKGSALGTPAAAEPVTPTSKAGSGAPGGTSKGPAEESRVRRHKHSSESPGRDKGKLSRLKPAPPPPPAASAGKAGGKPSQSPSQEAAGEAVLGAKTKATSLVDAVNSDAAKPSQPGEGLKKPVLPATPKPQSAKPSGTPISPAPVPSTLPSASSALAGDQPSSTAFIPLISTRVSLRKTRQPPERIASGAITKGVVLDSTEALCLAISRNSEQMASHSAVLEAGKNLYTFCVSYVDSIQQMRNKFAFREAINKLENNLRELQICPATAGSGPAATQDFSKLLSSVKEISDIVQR

Row | SMILES | Ki [1] | pKi [1] | Ki [2] | Ki [3] | pKi [3] | Ki [4] | Ki [5] | Ki [6] | Ki [7] | Ki [8] | pKi [8] | Ki [9] | Ki [10]
1 | NC(=O)c1cc(-c2ccnc(N)n2)[nH]c1-c1ccc(Cl)cc1Cl | 316 nM (active) | 6.5 | > 3980 nM (inactive) | 1000 nM (active) | 6 | > 2510 nM (inactive) | > 1580 nM (inactive) | > 10000 nM (inactive) | > 631 nM (inactive) | 398 nM (active) | 6.4 | > 10000 nM (inactive) | > 7940 nM (inactive)
2 | NC(COc1cncc(-c2ccc3c(c2)C(=Cc2ccco2)C(=O)N3)c1)Cc1c[nH]c2ccccc12 (stereo not drawn) | 15.8 nM (active) |  | 794 nM (active) | 50.1 nM (active) |  | 79.4 nM (active) | 1000 nM (active) | > 10000 nM (inactive) | > 631 nM (inactive) | 63.1 nM (active) |  | 2000 nM (active) | 2510 nM (active)

— ChEMBL document CHEMBL1201862, “PubChem BioAssay data set” (2004)
